From patent EP1333824B1, “TREATMENT OF SEXUAL DYSFUNCTION WITH BOMBESIN RECEPTOR ANTAGONISTS” (Warner-Lambert Company LLC, priority 2000, dated 2002)

Key:
[1] = system: Ovariectomised adult female Sprague Dawley rats; assay: Female rat sexual proceptivity test (time investigating male vs female stimulus); assay type: in vivo
[2] = system: Ovariectomised adult female Sprague Dawley rats; assay: Female rat sexual receptivity test (lordosis quotient, LQ); assay type: in vivo; settings: for lordosis quotient (LQ): quinelorane 6.25µg/kg s.c. 90min
Description: Ovariectomised adult female Sprague Dawley rats (180-200g, from Charles River) were housed in groups of 6 in a reversed lighting system of 12h light:dark (lights off 7.00-19.00h). Two weeks after ovariectomy they were used for sexual activity tests. The experiments started at least 5h into the dark period.
It was administered intraperitoneally (i.p.) at a dose of 10mg/kg, in a dosing volume of 1ml/kg. […] Forty eight hours before testing, ovariectomised female rats (as described above), were primed with 5µg oestradiol benzoate dissolved in corn oil and injected subcutaneously. […] The females were placed with a series of vigorous male rats and subjected to 10 mounts.
The lordotic response of the animal was recorded and expressed as a percentage of the mounts (i.e. lordosis quotient, LQ), as previously described. Animals showing LQ<20 were considered non-receptive and were included in the study. Each rat was tested prior to administration of the compound and then tested similarly post-injection.
The above compound was dissolved in PEG200 vehicle and administered orally. […] Both compounds were administered in a 1ml/kg volume.
Forty eight hours before tests, the animals were primed with 5µg oestradiol benzoate (Sigma Chemical. Co. Ltd., UK) dissolved in corn oil and injected subcutaneously. The females were placed with a series of vigorous male rats and subjected to 10 mounts. The lordotic response of the animal was recorded and expressed as a percentage of the mounts (i.e. lordosis quotient, LQ). […] Animals showing higher LQ were not included in the study. Each rat was tested prior to administration of the compound and then tested similarly at 1h and 90min post-injection of the above compound or quinelorane respectively.

Sprague Dawley male rats [3] = assay: Sexual behaviour of fluoxetine-induced sexually dysfunctional male rats; assay type: in vivo, rat; settings: fluoxetine 20mg/kg i.p. 3 days (vs vehicle+vehicle)
Description: (§1) Sprague Dawley male rats (Charles River, UK) were kept, 4 rats per cage, in a reversed lighting regime (12:12 hours, lights off at 5.00 h), with free access to food and water. The rats were pre-selected by being presented with a receptive female at 4 days intervals, i.e. every third day (having 2 clear days between presentations) until completing 6-7 trials of baseline determination. The animals showing consistently vigorous behaviour (ejaculatory latencies <300s) were chosen for further experiments. Animals were treated for 3 consecutive days with either vehicle (water) or fluoxetine (20mg/kg, i.p., in a 2ml/kg dosing volume). […] All treatments were administered i.p. in a 1ml/kg volume, 1h before tests.
(§2) For all the sexual behaviour tests, the males were placed in an observation arena (50-60 cm diameter), starting 5 hours into the dark cycle and observed under red illumination. Three to 4 minutes after placing the male in the arena, a receptive female (ovariectomised, bearing a 7 mm Silastic implant of oestradiol benzoate) was introduced to the arena and the following parameters noted: Mount Latency: time (in seconds) taken between introduction of female and first mount. A maximum time of 15 minutes (900 seconds) was allowed, and the test terminated if no mounts were recorded within that time (Figure 16), Ejaculation Latency: time (in seconds) taken from first intromission to ejaculation. A maximum time of 30 minutes (1800 seconds) was given, and the test terminated if ejaculation was not achieved in that time (Figure 17), Percentage of males achieving ejaculation within 30 minutes was calculated (Figure 18).
A one-way ANOVA followed by Dunnett's t test was used to compare the fluoxetine+vehicle group and other groups for mount and ejaculatory latencies. Percentage of animals ejaculating was analysed using a Chi-square test followed by Fisher's test. (*: P<0.05, **: P<0.01, ***: P<0.001; n=15-19).

Sprague Dawley male rats [4] = assay: Sexual behaviour of normal (sexually vigorous) male rats; assay type: in vivo, rat; settings: Compound (1) 15mg/kg or Fluoxetine 20mg/kg i.p. 1h before tests, vs vehicle
Description: as §1, with “days” for “trials”, “experiments (n=24).” for “experiments.”, “randomised into three groups. All animals received all three treatments following a latin-square design. Treatments were administered once a week, with a baseline test in between treatments (4” for “treated for 3 consecutive”, “intervals between baseline and test day).” for “with either vehicle (water) or fluoxetine (20mg/kg, i.p., in a 2ml/kg dosing volume).”
as §2, with “11), Intromission Latency: time (in seconds) taken between introduction of female and first intromission (Figure 12), Number of Mounts: to reach ejaculation. When ejaculation was not reached, the number of mounts was not analyzed, Number of Intromissions: to reach ejaculation. When ejaculation was not reached, the number of intromissions was not analyzed (Figure 13 is number of mounts + intromissions),” for “16),”, “14), and Refractory Period: time (in seconds) taken from ejaculation to the first mount” for “17), Percentage”, “the next series of sexual activity. In those animals reaching” for “males achieving”, “the test” for “within 30 minutes”, “terminated at the end of the refractory period, as indicated by the first mount of the next sexual cycle” for “calculated”, “15).” for “18).”
A one-way ANOVA followed by Dunnett's t test was used to compare treated vs vehicle groups each day of testing, for all the sexual behaviour parameters.

[5] = Example 31, after vs before administration, Compound (2) oral 10-100mg/kg in PEG200, 1h
[6] = day 4 Compound (1) 15mg/kg or yohimbine 2mg/kg i.p. 1h before tests (vs fluoxetine+vehicle)

Compound | MED (increase in percentage of time spent investigating the male stimulus) ([1]; Example 29, oral, 30-100mg/kg in PEG 200 vehicle, 1h before test) [mg/kg] | percentage of time spent investigating the male stimulus ([1]; Example 29, oral, dose-dependent 30-100mg/kg in PEG 200, 1h before test) | increase in potency compared to the oral results obtained in the PEG200 vehicle ([1]; Example 30, methyl cellulose MED vs PEG200 MED) [fold] | MED (increase in percentage of time spent investigating the male stimulus) ([1]; Example 30, p.o., 3-30mg/kg in 0.5% methyl cellulose, 1h before tests) [mg/kg] | percentage of time spent investigating the male stimulus ([1]; Example 30, p.o., dose-dependent 3-30mg/kg in 0.5% methyl cellulose) | lordosis quotient (LQ) [2, 5] | minimal effective dose ([2]; Rattus norvegicus, Example 31, single oral administration in PEG200, 1h after administration, P<0.01, read-out: MED (increase in LQ)) [mg/kg] | Ejaculation latency (Sprague Dawley male rats [3]; [6]) | Mount latency (Sprague Dawley male rats [3]; [6]) | percentage of animals ejaculating (Sprague Dawley male rats [3]; within 30 minutes, day 4 Compound (1) 15mg/kg or yohimbine 2mg/kg i.p. (vs fluoxetine+vehicle)) | Ejaculation latency (Sprague Dawley male rats [4]) | Intromission latency (Sprague Dawley male rats [4]) | Mount latency (Sprague Dawley male rats [4]) | Refractory period (Sprague Dawley male rats [4]) | number of mounts and intromissions required to achieve ejaculation (Sprague Dawley male rats [4]) | lordosis quotient (LQ) ([2]; Example 2, after vs before administration (paired t test), Compound (1) 10mg/kg i.p. 1h)
COc1ccc(C2(CNC(=O)[C@](C)(Cc3c[nH]c4ccccc34)Nc3nc(-c4ccc([N+](=O)[O-])cc4)co3)CCCCC2)nc1 [Example 9, (S)-3-(1H-Indol-3-yl)-N-[1-(5-methoxy-pyridin-2-yl)-cyclohexylmethyl]-2-methyl-2-[4-(4-nitro-phenyl)-oxazol-2-ylamino]-propionamide] | 100 | increased the percentage of time spent investigating the male stimulus | 10 | 10 | increased the percentage of time spent investigating the male stimulus | increased the LQ | 100 |  |  |  |  |  |  |  |  | 
CNCCC(Oc1ccc(C(F)(F)F)cc1)c1ccccc1 (centres unmarked) [fluoxetine, reference compound] |  |  |  |  |  |  |  | significantly increased | significantly increased | significantly lower | also increased | significantly increased | significantly increased | also increased | No changes | 
CCCN1CCC[C@@H]2Cc3nc(N)ncc3C[C@H]21 [quinelorane, reference compound] |  |  |  |  |  | significantly (P<0.01) increased the LQ |  |  |  |  |  |  |  |  |  | significantly (P<0.01) increased the LQ
